Experimental findings from patent US8710065B2, “Tricyclic inhibitors of kinases” (AbbVie Inc., priority 2011, dated 2014) are described below.

Where only a bound is given, the exact number is not on record here.

T1 sequence (P30291 whole entry): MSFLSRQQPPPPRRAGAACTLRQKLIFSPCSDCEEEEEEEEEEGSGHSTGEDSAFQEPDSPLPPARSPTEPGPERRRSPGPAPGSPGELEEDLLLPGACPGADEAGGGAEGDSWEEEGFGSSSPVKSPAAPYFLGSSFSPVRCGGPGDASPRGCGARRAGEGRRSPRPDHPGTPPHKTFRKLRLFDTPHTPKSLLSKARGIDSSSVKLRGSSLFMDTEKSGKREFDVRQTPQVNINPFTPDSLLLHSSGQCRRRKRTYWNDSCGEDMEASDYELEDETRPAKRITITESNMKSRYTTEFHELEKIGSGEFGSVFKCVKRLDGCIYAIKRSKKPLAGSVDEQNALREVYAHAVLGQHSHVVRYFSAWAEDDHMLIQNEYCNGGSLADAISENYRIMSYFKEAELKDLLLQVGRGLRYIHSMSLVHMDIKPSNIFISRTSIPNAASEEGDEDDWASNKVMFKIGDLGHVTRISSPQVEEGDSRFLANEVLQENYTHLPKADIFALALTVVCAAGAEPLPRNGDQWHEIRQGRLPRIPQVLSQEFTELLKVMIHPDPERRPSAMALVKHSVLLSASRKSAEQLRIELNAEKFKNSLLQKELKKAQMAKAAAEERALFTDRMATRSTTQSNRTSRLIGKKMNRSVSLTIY

The test has as its target T1, GST-tagged-Wee1 kinase (Homo sapiens, UniProt P30291).
T1 construct: purchased Carnabio (Carna Biosciences) 05-177
The experiment in a line: Wee1 time-resolved fluorescence equilibrium binding assay (displacement of Oregon Green-labeled ATP-competitive kinase probe). The settings on record: read-out: Wee-1 inhibition (Ki). The essentials:
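Time-resolved fluorescence equilibrium binding with GST-Wee1, measuring displacement of a rapidly reversible Oregon Green-labelled ATP-competitive probe by competitive inhibitors; values reported as Ki.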
For `CC1(C)CN(C(=O)CO)Cc2cc(Nc3ncc4c(=O)n(-c5c(F)cccc5Cl)c5nccn5c4n3)ccc21` [Example 316, 6-(2-chloro-6-fluorophenyl)-2-{[2-(hydroxyacetyl)-4,4-dimethyl-1,2,3,4-tetrahydroisoquinolin-7-yl]amino}imidazo[1,2-a]pyrimido[5,4-e]pyrimidin-5(6H)-one], the Ki (commonly a dissociation constant, usually derived from enzyme kinetics or from competition with a known ligand) was below 10 nM. In the case of `CC1(C)CN(S(N)(=O)=O)Cc2cc(Nc3ncc4c(=O)n(-c5c(F)cccc5Cl)c5nccn5c4n3)ccc21` [Example 317, 7-{[6-(2-chloro-6-fluorophenyl)-5-oxo-5,6-dihydroimidazo[1,2-a]pyrimido[5,4-e]pyrimidin-2-yl]amino}-4,4-dimethyl-3,4-dihydroisoquinoline-2(1H)-sulfonamide] it was below 10 nM; in that of `CC(=O)N1Cc2cc(Nc3ncc4c(=O)n(-c5c(Cl)cccc5Cl)c5nccn5c4n3)ccc2C(C)(C)C1` [Example 318, 2-[(2-acetyl-4,4-dimethyl-1,2,3,4-tetrahydroisoquinolin-7-yl)amino]-6-(2,6-dichlorophenyl)imidazo[1,2-a]pyrimido[5,4-e]pyrimidin-5(6H)-one], below 10 nM. Turning to `CC1(C)CN(S(C)(=O)=O)Cc2cc(Nc3ncc4c(=O)n(-c5c(Cl)cccc5Cl)c5nccn5c4n3)ccc21` [Example 319, 6-(2,6-dichlorophenyl)-2-{[4,4-dimethyl-2-(methylsulfonyl)-1,2,3,4-tetrahydroisoquinolin-7-yl]amino}imidazo[1,2-a]pyrimido[5,4-e]pyrimidin-5(6H)-one], the inhibitory constant (Ki) was below 10 nM. In the case of `CCS(=O)(=O)N1Cc2cc(Nc3ncc4c(=O)n(-c5c(Cl)cccc5Cl)c5nccn5c4n3)ccc2C(C)(C)C1` [Example 320, 6-(2,6-dichlorophenyl)-2-{[2-(ethylsulfonyl)-4,4-dimethyl-1,2,3,4-tetrahydroisoquinolin-7-yl]amino}imidazo[1,2-a]pyrimido[5,4-e]pyrimidin-5(6H)-one] it was below 10 nM; in that of `CC(=O)N1CCC(Nc2ccc(Nc3ncc4c(=O)n(-c5c(Cl)cccc5Cl)c5nccn5c4n3)cc2)CC1` [Example 321, 2-({4-[(1-acetylpiperidin-4-yl)amino]phenyl}amino)-6-(2,6-dichlorophenyl)imidazo[1,2-a]pyrimido[5,4-e]pyrimidin-5(6H)-one], below 10 nM. In the case of `CS(=O)(=O)N1CCC(Nc2ccc(Nc3ncc4c(=O)n(-c5c(Cl)cccc5Cl)c5nccn5c4n3)cc2)CC1` [Example 322, 6-(2,6-dichlorophenyl)-2-[(4-{[1-(methylsulfonyl)piperidin-4-yl]amino}phenyl)amino]imidazo[1,2-a]pyrimido[5,4-e]pyrimidin-5(6H)-one] it was below 10 nM. The same measure for `CN1CCC2(CC1)CCN(c1ccc(Nc3ncc4c(=O)n(-c5c(Cl)cccc5Cl)c5nccn5c4n3)cc1)CC2` [Example 323, 6-(2,6-dichlorophenyl)-2-{[4-(9-methyl-3,9-diazaspiro[5.5]undec-3-yl)phenyl]amino}imidazo[1,2-a]pyrimido[5,4-e]pyrimidin-5(6H)-one]: below 10 nM; for `CS(=O)(=O)N1CCC2(CN(c3ccc(Nc4ncc5c(=O)n(-c6c(Cl)cccc6Cl)c6nccn6c5n4)cc3)C2)C1` [Example 324, 6-(2,6-dichlorophenyl)-2-({4-[6-(methylsulfonyl)-2,6-diazaspiro[3.4]oct-2-yl]phenyl}amino)imidazo[1,2-a]pyrimido[5,4-e]pyrimidin-5(6H)-one]: below 10 nM. Consider `O=c1c2cnc(Nc3ccc(N4CCN5CCC[C@H]5C4)cc3)nc2n2ccnc2n1-c1ccccc1Cl` [Example 325, 6-(2-chlorophenyl)-2-({4-[(8aS)-hexahydropyrrolo[1,2-a]pyrazin-2(1H)-yl]phenyl}amino)imidazo[1,2-a]pyrimido[5,4-e]pyrimidin-5(6H)-one], for which the Ki is below 10 nM. On to `CN1C[C@H]2CCN(c3ccc(Nc4ncc5c(=O)n(-c6c(Cl)cccc6Cl)c6nccn6c5n4)cc3)[C@H]2C1` [Example 326, 6-(2,6-dichlorophenyl)-2-({4-[(3aR,6aR)-5-methylhexahydropyrrolo[3,4-b]pyrrol-1(2H)-yl]phenyl}amino)imidazo[1,2-a]pyrimido[5,4-e]pyrimidin-5(6H)-one], for which the Ki is below 10 nM. In the case of `CCN(CCN(C)C)c1ccc(Nc2ncc3c(=O)n(-c4c(Cl)cccc4Cl)c4nccn4c3n2)cc1` [Example 327, 6-(2,6-dichlorophenyl)-2-[(4-{[2-(dimethylamino)ethyl](ethyl)amino}phenyl)amino]imidazo[1,2-a]pyrimido[5,4-e]pyrimidin-5(6H)-one] it was below 10 nM.

Take `CC(C)NCCN(c1ccc(Nc2ncc3c(=O)n(-c4c(Cl)cccc4Cl)c4nccn4c3n2)cc1)C(C)C` [Example 328, 6-(2,6-dichlorophenyl)-2-[(4-{propan-2-yl[2-(propan-2-ylamino)ethyl]amino}phenyl)amino]imidazo[1,2-a]pyrimido[5,4-e]pyrimidin-5(6H)-one]: the Ki was below 10 nM. The same measure for `CC(=O)N1CCc2ccc(Nc3ncc4c(=O)n(-c5c(Cl)cccc5Cl)c5nccn5c4n3)cc2C1` [Example 329, 2-[(2-acetyl-1,2,3,4-tetrahydroisoquinolin-7-yl)amino]-6-(2,6-dichlorophenyl)imidazo[1,2-a]pyrimido[5,4-e]pyrimidin-5(6H)-one]: below 10 nM; for `CS(=O)(=O)N1CCc2cc(Nc3ncc4c(=O)n(-c5c(Cl)cccc5Cl)c5nccn5c4n3)ccc2C1` [Example 330, 6-(2,6-dichlorophenyl)-2-{[2-(methylsulfonyl)-1,2,3,4-tetrahydroisoquinolin-6-yl]amino}imidazo[1,2-a]pyrimido[5,4-e]pyrimidin-5(6H)-one]: below 10 nM; for `CC(=O)N1CCc2cc(Nc3ncc4c(=O)n(-c5c(Cl)cccc5Cl)c5nccn5c4n3)ccc2C1` [Example 331, 2-[(2-acetyl-1,2,3,4-tetrahydroisoquinolin-6-yl)amino]-6-(2,6-dichlorophenyl)imidazo[1,2-a]pyrimido[5,4-e]pyrimidin-5(6H)-one]: below 10 nM. For the compound `CN1CCN(c2ccc(Nc3ncc4c(=S)n(-c5ccccc5Cl)c5nccn5c4n3)cc2)CC1` [Example 332, 6-(2-chlorophenyl)-2-{[4-(4-methylpiperazin-1-yl)phenyl]amino}imidazo[1,2-a]pyrimido[5,4-e]pyrimidine-5(6H)-thione], the Ki is below 10 nM. Consider `CN1CCN(c2ccc(Nc3ncc4c(=N)n(-c5ccccc5Cl)c5nccn5c4n3)cc2)CC1` [Example 333, 6-(2-chlorophenyl)-5-imino-N-[4-(4-methylpiperazin-1-yl)phenyl]-5,6-dihydroimidazo[1,2-a]pyrimido[5,4-e]pyrimidin-2-amine], for which the Ki was below 10 nM. In the case of `CN1Cc2cc(Nc3ncc4c(=S)n(-c5ccccc5Cl)c5nccn5c4n3)ccc2C(C)(C)C1` [Example 334, 6-(2-chlorophenyl)-2-[(2,4,4-trimethyl-1,2,3,4-tetrahydroisoquinolin-7-yl)amino]imidazo[1,2-a]pyrimido[5,4-e]pyrimidine-5(6H)-thione] it was below 10 nM; in that of `CN1Cc2cc(Nc3ncc4c(=N)n(-c5ccccc5Cl)c5nccn5c4n3)ccc2C(C)(C)C1` [Example 335, 6-(2-chlorophenyl)-5-imino-N-(2,4,4-trimethyl-1,2,3,4-tetrahydroisoquinolin-7-yl)-5,6-dihydroimidazo[1,2-a]pyrimido[5,4-e]pyrimidin-2-amine], below 10 nM; in that of `CN1CCN(c2ccc(Nc3ncc4c(=O)n(-c5cccc(F)c5)c5nccn5c4n3)cc2)CC1` [Example 336, 6-(3-fluorophenyl)-2-{[4-(4-methylpiperazin-1-yl)phenyl]amino}imidazo[1,2-a]pyrimido[5,4-e]pyrimidin-5(6H)-one], 10 to 100 nM.

With `CN1CCN(c2ccc(Nc3ncc4c(=O)n(-c5cccc(Cl)c5)c5nccn5c4n3)cc2)CC1` [Example 337, 6-(3-chlorophenyl)-2-{[4-(4-methylpiperazin-1-yl)phenyl]amino}imidazo[1,2-a]pyrimido[5,4-e]pyrimidin-5(6H)-one], the inhibitory constant (Ki) is above 100 nM. The same measure for `COc1ccc(-n2c(=O)c3cnc(Nc4ccc(N5CCN(C)CC5)cc4)nc3n3ccnc23)c(OC)c1` [Example 338, 6-(2,4-dimethoxyphenyl)-2-{[4-(4-methylpiperazin-1-yl)phenyl]amino}imidazo[1,2-a]pyrimido[5,4-e]pyrimidin-5(6H)-one]: above 100 nM; for `CCN1CCN(c2ccc(Nc3ncc4c(=O)n(-c5ccccc5Cl)c5nccn5c4n3)nc2)CC1` [Example 339, 6-(2-chlorophenyl)-2-{[5-(4-ethylpiperazin-1-yl)pyridin-2-yl]amino}imidazo[1,2-a]pyrimido[5,4-e]pyrimidin-5(6H)-one]: above 100 nM. The same measure for `CN1CCN(c2ccc(Nc3ncc4c(=O)n(-c5ccc(C(F)(F)F)cc5Cl)c5nccn5c4n3)cc2)CC1` [Example 340, 6-[2-chloro-4-(trifluoromethyl)phenyl]-2-{[4-(4-methylpiperazin-1-yl)phenyl]amino}imidazo[1,2-a]pyrimido[5,4-e]pyrimidin-5(6H)-one]: above 100 nM; for `CN1CCN(c2ccc(Nc3ncc4c(=O)n(-c5ccccc5OC(F)(F)F)c5nccn5c4n3)cc2)CC1` [Example 341, 2-{[4-(4-methylpiperazin-1-yl)phenyl]amino}-6-[2-(trifluoromethoxy)phenyl]imidazo[1,2-a]pyrimido[5,4-e]pyrimidin-5(6H)-one]: above 100 nM; for `O=C(O)c1ccc(Nc2ncc3c(=O)n(-c4ccccc4Cl)c4nccn4c3n2)cc1` [Example 342, 4-{[6-(2-chlorophenyl)-5-oxo-5,6-dihydroimidazo[1,2-a]pyrimido[5,4-e]pyrimidin-2-yl]amino}benzoic acid]: above 100 nM. In the case of `O=c1c2cnc(Nc3ccc(Br)cc3)nc2n2ccnc2n1-c1ccccc1Cl` [Example 343, 2-[(4-bromophenyl)amino]-6-(2-chlorophenyl)imidazo[1,2-a]pyrimido[5,4-e]pyrimidin-5(6H)-one], the inhibitory constant (Ki) was 10 to 100 nM.

`COc1cccc(-n2c(=O)c3cnc(Nc4ccccc4)nc3n3ccnc23)c1C` [Example 344, 6-(3-methoxy-2-methylphenyl)-2-(phenylamino)imidazo[1,2-a]pyrimido[5,4-e]pyrimidin-5(6H)-one]: the Ki is above 100 nM.
